Patent US11771685B2, “Compounds for the treatment of neurological or mitochondrial diseases” (MUSC FOUNDATION FOR RESEARCH DEVELOPMENT, priority 2018, dated 2023)

Experiment: Rotarod neurotoxicity test in mice
Type: in vivo, mouse
Conditions: 1 hr, 44 mA study
Procedure: Mice or rats were administered the NT-102 compound i.p., one hour was allowed to pass (since the time to peak effect was determined to be about one hour), and then rodents were then placed on the Rotarod to determine if any motor defects would be observed; after the rotarod test, then rodents were administered an electrical stimulation to determine if the dose of NT-102 would protect against (i.e., prevent) the seizures due to the electrical stimulation. In particular, using (i) electrical model to test for seizures in mice and, separately, (ii) in rat 6 Hz 40V model. More specifically, NT-102 was injected (i.p.) in 5% DMSO/95% Miglyol 840 as vehicle. Mice were challenged with 6 Hz 44 mA current to see if seizures would result. […] The Time of Peak Effect (TPE) was observed 1 hour. Additional data is shown below in Table 5. The mice were administered the NT-102 at various doses and placed on the rotarod (i.e., “Rotarod (Tox)”) to test if the mice would fall off as a model of due to the effects of NT-102; for the “Rotarod(Tox)” results, the “NIT” indicates the number of mice that fell off the rotarod (e.g., for Rotarod(Tox) results, if N/T is 0/8, then zero out of eight mice fell off). For the electrical stimulation data (i.e., “6 Hz 44 mA”), an electrical stimulation of 6 Hz 44 mA was administered. […] The 44 mA electrical dosage was used since it is considered to be a model to test for medication-resistant epilepsy.

CC(C)CCNC1=CC(=O)c2ccccc2C1=O [Compound 17, 2-(Isopentylamino)naphthalene-1,4-dione]
Rotarod (Tox) N/T, mice that fell off (100 mg/kg i.p.): 0/8
Rotarod (Tox) N/T, mice that fell off (200 mg/kg i.p.): 2/8
Rotarod (Tox) N/T, mice that fell off (300 mg/kg i.p.): 0/8
Rotarod (Tox) N/T, mice that fell off (400 mg/kg i.p.): 1/8
